Data from ChEMBL document CHEMBL4477267, “Discovery of oxa-sultams as RORc inverse agonists showing reduced lipophilicity, improved selectivity and favorable ADME properties” (Bioorg Med Chem Lett, 2016).
Converted amounts (≈) assume the structure as drawn. Blank lines part the entries; values can stand above or below the compound they belong to.

What was measured:
[1] = target: T1, Nuclear receptor ROR-gamma (Homo sapiens, UniProt P51449); assay: Inverse agonist activity at human RORc-LBD assessed as inhibition of SRC1 co-activator peptide recruitment by FRET assay
T1 sequence (P51449 whole entry): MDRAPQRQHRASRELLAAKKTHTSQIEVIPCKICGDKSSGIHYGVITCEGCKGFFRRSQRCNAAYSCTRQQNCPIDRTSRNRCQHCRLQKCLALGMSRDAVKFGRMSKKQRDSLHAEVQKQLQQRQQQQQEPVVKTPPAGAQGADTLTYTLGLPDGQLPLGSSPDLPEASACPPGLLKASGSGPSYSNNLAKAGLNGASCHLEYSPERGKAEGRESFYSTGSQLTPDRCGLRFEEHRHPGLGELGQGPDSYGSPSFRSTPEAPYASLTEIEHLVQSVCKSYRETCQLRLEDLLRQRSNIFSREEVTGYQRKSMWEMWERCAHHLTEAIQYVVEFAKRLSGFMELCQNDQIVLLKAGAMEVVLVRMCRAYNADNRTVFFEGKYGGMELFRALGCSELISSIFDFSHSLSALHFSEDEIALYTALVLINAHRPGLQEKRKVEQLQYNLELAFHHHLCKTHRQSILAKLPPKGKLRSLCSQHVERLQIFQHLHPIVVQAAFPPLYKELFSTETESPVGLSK

[2] = target: T2, Nuclear receptor ROR-gamma (Homo sapiens) (UniProt P51449); assay: Inverse agonist activity at human RORc-LBD assessed as inhibition of SRC1 co-activator peptide recruitment by FRET assay relative to apo-RORc basal activity
T2 sequence (whole entry): T1 sequence (P51449 whole entry)

PBMC [3] = assay: Inhibition of IL-17AA production in anti-CD3 and anti-CD28 stimulated human PBMC measured […] by Sandwich ELISA; assay type: functional, cell-based
PBMC [4] = assay: Inhibition of IL-17AA production in anti-CD3 and anti-CD28 stimulated human PBMC measured […] by Sandwich ELISA relative to control; assay type: functional
PBMC [5] = assay: Inhibition of IFN-gamma production in anti-CD3 and anti-CD28 stimulated human PBMC measured […] by Sandwich ELISA; assay type: functional, cell-based
PBMC [6] = assay: Cytotoxicity against human PBMC assessed as cell viability measured after 48 hrs by CellTiter-Glo assay; assay type: cell-based
[7] = target: T1, Nuclear receptor ROR-gamma; assay: Inverse agonist activity at GAL4-fused human RORc expressed in HEK293 cells assessed as […] of basal transcriptional activity by dual-glo luciferase reporter gene assay; assay type: cell-based
[8] = target: T3, Nuclear receptor ROR-alpha (Homo sapiens, UniProt P35398); assay: Inverse agonist activity at GAL4-fused human RORa expressed in HEK293 cells assessed as […] of basal transcriptional activity by dual-glo luciferase reporter gene assay; assay type: cell-based
T3 sequence (P35398 whole entry): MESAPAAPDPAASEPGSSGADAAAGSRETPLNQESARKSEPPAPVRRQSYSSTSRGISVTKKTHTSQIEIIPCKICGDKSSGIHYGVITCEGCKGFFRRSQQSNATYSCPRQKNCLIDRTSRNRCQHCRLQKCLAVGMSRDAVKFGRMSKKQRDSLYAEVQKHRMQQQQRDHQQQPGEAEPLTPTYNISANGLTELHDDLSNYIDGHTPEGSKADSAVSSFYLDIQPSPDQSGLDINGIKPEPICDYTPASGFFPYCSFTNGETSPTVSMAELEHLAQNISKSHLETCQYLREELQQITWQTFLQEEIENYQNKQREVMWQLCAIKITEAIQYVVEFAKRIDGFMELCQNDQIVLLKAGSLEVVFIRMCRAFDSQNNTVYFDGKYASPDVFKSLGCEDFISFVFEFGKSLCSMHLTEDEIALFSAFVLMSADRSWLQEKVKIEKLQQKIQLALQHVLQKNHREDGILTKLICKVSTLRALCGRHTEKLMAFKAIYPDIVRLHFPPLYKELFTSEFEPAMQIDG

[9] = target: T4, Nuclear receptor ROR-beta (Homo sapiens, UniProt Q92753); assay: Inverse agonist activity at GAL4-fused human RORb expressed in HEK293 cells assessed as […] of basal transcriptional activity by dual-glo luciferase reporter gene assay; assay type: cell-based
T4 sequence (Q92753 whole entry): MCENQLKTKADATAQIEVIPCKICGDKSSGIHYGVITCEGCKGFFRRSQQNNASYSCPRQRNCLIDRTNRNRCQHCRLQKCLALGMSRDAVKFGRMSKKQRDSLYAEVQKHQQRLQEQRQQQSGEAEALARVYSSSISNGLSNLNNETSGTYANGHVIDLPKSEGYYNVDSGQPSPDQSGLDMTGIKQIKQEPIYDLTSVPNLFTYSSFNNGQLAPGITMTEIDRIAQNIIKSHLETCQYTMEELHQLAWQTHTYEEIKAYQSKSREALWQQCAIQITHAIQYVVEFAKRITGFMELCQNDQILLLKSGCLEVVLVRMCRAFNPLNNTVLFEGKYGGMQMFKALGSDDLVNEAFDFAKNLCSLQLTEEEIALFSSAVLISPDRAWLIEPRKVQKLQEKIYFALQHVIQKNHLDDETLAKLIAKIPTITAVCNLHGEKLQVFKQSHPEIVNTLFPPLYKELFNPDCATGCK

[10] = Aqueous kinetic solubility of the compound in pH 7.4 by high-throughput assay; assay type: physicochemical
[11] = Protein binding in human plasma by equilibrium dialysis; assay type: ADME, cell-free; conditions: read-out: PPB (converted)
[12] = Protein binding in rat plasma by equilibrium dialysis; assay type: ADME, cell-free; conditions: read-out: PPB (converted)
[13] = Protein binding in mouse plasma by equilibrium dialysis; assay type: ADME, cell-free; conditions: read-out: PPB (converted)
[14] = Apparent permeability from apical to basolateral side in MDCK cells; assay type: ADME, cell-based, Canis lupus familiaris; conditions: dog
[15] = Apparent permeability from basolateral to apical side in MDCK cells; assay type: ADME, cell-based, Canis lupus familiaris; conditions: dog
[16] = Efflux ratio of apparent permeability from basolateral to apical over apical to basolateral side in MDCK cells; assay type: ADME, cell-based, Canis lupus familiaris; conditions: dog
[17] = Clearance in human liver microsomes relative to liver blood flow; assay type: ADME, Microsome; conditions: read-out: CLH
[18] = Clearance in rat liver microsomes relative to liver blood flow; assay type: ADME, Microsome; conditions: read-out: CLH

EC50 [1]: 820 nM | Efficacy [2]: 73%
Structure (SMILES): CC(=O)N1CCN(c2ccc(CN3[C@@H](C)CC[C@H](c4cccnc4)S3(=O)=O)c(F)c2)CC1

EC50 [1]: 1300 nM | Efficacy [2]: 64%
Structure (SMILES): CC(=O)N1CCN(c2ccc(CN3[C@@H](C)CC[C@H](c4cccc(C#N)c4)S3(=O)=O)c(F)c2)CC1

EC50 [1]: 13 nM | Efficacy [2]: 98%
Structure (SMILES): CC(=O)N1CCN(c2ccc(CN3[C@@H](C)CC[C@H](c4ccsc4)S3(=O)=O)c(F)c2)CC1

EC50 [1]: 31 nM | Efficacy [2]: 99%
Structure (SMILES): CC(=O)N1CCN(c2ccc(CN3CCOC[C@H](c4ccccc4)S3(=O)=O)c(F)c2)CC1
EC50 (PBMC [3]): 1200 nM | Imax (PBMC [4]): 59% | EC50 (PBMC [5]): > 20000 nM | EC50 (PBMC [6]): > 20000 nM

EC50 [1]: 8 nM | Efficacy [2]: 100% | EC50 [7]: 64 nM | EC50 [8]: > 10000 nM | EC50 [9]: > 10000 nM
Structure (SMILES): CC(=O)N1CCN(c2ccc(CN3[C@@H](C)COC[C@H](c4ccccc4)S3(=O)=O)c(F)c2)CC1
EC50 (PBMC [3]): 750 nM | Imax (PBMC [4]): 80% | EC50 (PBMC [5]): > 20000 nM | EC50 (PBMC [6]): > 20000 nM

EC50 [1]: 73 nM | Efficacy [2]: 98%
Structure (SMILES): CC(=O)N1CCN(c2ccc(CN3[C@H](C)COC[C@H](c4ccccc4)S3(=O)=O)c(F)c2)CC1

EC50 [1]: 2 nM | Efficacy [2]: 91%
Structure (SMILES): CC(=O)N1CCN(c2ccc(CN3[C@@H](C)CC[C@H](c4cccs4)S3(=O)=O)c(F)c2)CC1

EC50 [1]: 3 nM | Efficacy [2]: 100% | EC50 [7]: 22 nM | EC50 [8]: > 10000 nM | EC50 [9]: > 10000 nM | solubility kinetic [10]: 38 µM (≈ 18.1 µg/mL) | fraction unbound [11]: 0.11 | fraction unbound [12]: 0.07 | fraction unbound [13]: 0.06 | Papp A→B [14]: 16 ×10⁻⁶ cm/s | Papp B→A [15]: 15 ×10⁻⁶ cm/s | efflux ratio [16]: 1 | hepatic extraction ratio [17]: > 0.7 | hepatic extraction ratio [18]: > 0.7
Structure (SMILES): CC(=O)N1CCN(c2ccc(CN3C[C@H](C)OC[C@H](c4ccccc4)S3(=O)=O)c(F)c2)CC1
EC50 (PBMC [3]): 450 nM | Imax (PBMC [4]): 67% | EC50 (PBMC [5]): > 20000 nM | EC50 (PBMC [6]): > 20000 nM

EC50 [1]: 3900 nM | Efficacy [2]: 62%
Structure (SMILES): CC(=O)N1CCN(c2ccc(CN3[C@@H](C)CC[C@H](c4ccc(C#N)cc4)S3(=O)=O)c(F)c2)CC1

EC50 [1]: 410 nM | Efficacy [2]: 76%
Structure (SMILES): CC(=O)N1CCN(c2ccc(CN3[C@@H](C)CC[C@H](c4ncccn4)S3(=O)=O)c(F)c2)CC1

EC50 [1]: 7 nM | Efficacy [2]: 99%
Structure (SMILES): CC(=O)N1CCN(c2ccc(CN3[C@@H](C)CC[C@H](c4cccc(Cl)c4)S3(=O)=O)c(F)c2)CC1

EC50 [1]: 120 nM | Efficacy [2]: 87%
Structure (SMILES): CC(=O)N1CCN(c2ccc(CN3[C@@H](C)CC[C@H](c4ccccn4)S3(=O)=O)c(F)c2)CC1

Structure (SMILES): CC(=O)N1CCN(c2ccc(CN3CCCC[C@H](c4ccccc4)S3(=O)=O)c(F)c2)CC1
EC50 [1]: 6 nM | Efficacy [2]: 99% | EC50 (PBMC [3]): 430 nM | Imax (PBMC [4]): 80% | EC50 (PBMC [5]): > 20000 nM | EC50 (PBMC [6]): > 20000 nM | EC50 [7]: 25 nM | EC50 [8]: 6800 nM | EC50 [9]: 6800 nM

EC50 [1]: 34 nM | Efficacy [2]: 99%
Structure (SMILES): CC(=O)N1CCN(c2ccc(CN3[C@@H](C)CC[C@H](c4ccc(Cl)cc4)S3(=O)=O)c(F)c2)CC1

EC50 [1]: 410 nM | Efficacy [2]: 89%
Structure (SMILES): CC(=O)N1CCN(c2ccc(CN3[C@@H](C)CC[C@H](c4ccncc4)S3(=O)=O)c(F)c2)CC1

EC50 [1]: 21 nM | Efficacy [2]: 100%
Structure (SMILES): CC(=O)N1CCN(c2ccc(CN3C[C@@H](C)OC[C@H](c4ccccc4)S3(=O)=O)c(F)c2)CC1

EC50 [1]: 230 nM | Efficacy [2]: 91%
Structure (SMILES): CC(=O)N1CCN(c2ccc(CN3[C@@H](C)CC[C@H](c4ccccc4Cl)S3(=O)=O)c(F)c2)CC1

Structure (SMILES): CC(=O)N1CCN(c2ccc(CN3[C@@H](C)CC[C@H](c4ccccc4)S3(=O)=O)c(F)c2)CC1
EC50 (PBMC [3]): 450 nM | Imax (PBMC [4]): 82% | EC50 (PBMC [5]): > 20000 nM | EC50 (PBMC [6]): > 20000 nM | EC50 [7]: 47 nM | EC50 [8]: 5400 nM | EC50 [9]: 5400 nM | solubility kinetic [10]: 20 µM (≈ 9.19 µg/mL) | fraction unbound [11]: 0.05 | fraction unbound [12]: 0.05 | fraction unbound [13]: 0.04 | Papp A→B [14]: 24 ×10⁻⁶ cm/s | Papp B→A [15]: 32 ×10⁻⁶ cm/s

EC50 [1]: 58 nM | Efficacy [2]: 97%
Structure (SMILES): COc1cccc([C@H]2CC[C@H](C)N(Cc3ccc(N4CCN(C(C)=O)CC4)cc3F)S2(=O)=O)c1

EC50 [1]: 28 nM | Efficacy [2]: 96%
Structure (SMILES): COc1ccc([C@H]2CC[C@H](C)N(Cc3ccc(N4CCN(C(C)=O)CC4)cc3F)S2(=O)=O)cc1

EC50 [1]: 1900 nM | Efficacy [2]: 76%
Structure (SMILES): CC(=O)N1CCN(c2ccc(CN3[C@@H](C)CC[C@H](c4ccccc4C#N)S3(=O)=O)c(F)c2)CC1

EC50 [1]: 94 nM | Efficacy [2]: 94%
Structure (SMILES): COc1ccccc1[C@H]1CC[C@H](C)N(Cc2ccc(N3CCN(C(C)=O)CC3)cc2F)S1(=O)=O
